“Also recorded” adds a separate entry of the source. Like-named read-outs stand apart in the source and are kept apart here.
How the values were obtained:
[1] = system: patients with diabetes mellitus type 2; experiment: Effect of GLP-1 infusion on eating behaviour in diabetes mellitus type 2 (Example 2)
Experimental: Twelve male patients were recruited for the study who had diabetes mellitus type 2 for at least one year. Patients were admitted to a Research Unit after given written informed consent and after the experimental protocol had been explained to them. The mean age of the patients was 55±2 years; their mean HbA1C was 8.1±4 and their mean BMi was 29.4±1.2. Seven patients were on oral antidiabetics. The participants were tested on two different days in a placebo-controlled, randomized, double-blind, crossover study. The two test days were separated by at least one week and by no more than three weeks.
On each test day, patients arrived in the Research Unit in the morning, having fasted overnight. A standardized, fixed energy breakfast was then served and it had to be completed before 8:30 a.m. After breakfast, patients were able to read and listen to music. At 11:00 a.m., two venflon catheters were inserted into the anticubital veins of each arm, one for infusion, the other one for blood drawing. […] Infusions were delivered by ambulatory infusion pumps. 60 min after the start of the respective infusion, a test meal was presented and the participants were invited to eat and drink as much as they liked.
Beginning with the infusions, participants scored their subjective feelings of hunger and fullness in 15 min intervals throughout the experiments using visual analogue scales (VAS) of 0–10 with text expressing the most positive and most negative rating anchored at each end. VAS were used to assess hunger, fullness, and prospective food consumption using scales and scores which have previously been designed.
Each subject was free to eat and drink as much as they wished until “comfortably satisfied” of a standard meal which consisted of a) orange juice as an appetizer (480 kcal/l); b) ham sandwiches (60 g, 10 g butter, 25 g ham: 266 kcal/sandwich) with more orange juice or with water; c) strawberry mousse (100 kcal/100 g); d) coffee with cream (coffee could be sweetened with aspartam if desired; both cream and aspartan were optional; 12 g cream=20 kcal). No additional food or fluid was allowed during the study. In addition, the order of food intake had to follow the above schedule. To reduce participants' awareness of the amount of food being provided, food was served in excess. The quantity of food eaten and the quantity of fluid drunk were measured. From these observations, the total energy intake could be calculated. In the pre-meal period and after eating, blood samples were taken in regular intervals for glucose and hormone determinations. Adverse events were assessed by the attending physician through close observation of each patient; in addition, each participant was questioned after each experiment and after they had completed the two tests whether they had experienced any adverse events.
The peptide was dissolved in 0.9% saline solution containing 0.5% human serum albumin and prepared under aseptic conditions by the University of Basel Hospital Pharmacy. Aliquots of 50 μg/5 ml were stored at −20° C. […] The solutions were prepared by a pharmacist who was not involved in the study. The physician in charge of the experiment was therefore not aware of the respective treatment, thereby making it possible to conduct treatments in a double-blind fashion.
The amount of food eaten and the amount of fluid drunk as well as the corresponding energy intake were compared between the two treatments by Wilcoxon Signed Ranks Test using an SAS software package. […] Scores for hunger and fullness were compared by calculating the S score from baseline (0 min) to 60 min of infusion using the Wilcoxon Signed Ranks Test. Differences were considered significant if p was <0.05.

healthy male subjects = experiment: Effect of graded intravenous doses of synthetic human GLP-1 on food intake (Example 1); details: for Calorie intake / Fluid intake / Food quantity / Meal duration: 16 healthy male subjects, mean, SEM
Experimental: A randomized, double-blind design was carried out with 16 healthy men aged 23.6±0.5 years. The weight of all subjects was within normal range considering their age, sex, and height. Each subject gave written informed consent for the study.
Four treatments (0, 0.375, 0.75 and 1.5 pmol/kg), separated by at least 7 days, were administered to the 16 subjects. […] An identical standard meal was presented to the subjects on each occasion. The meal consisted of orange juice as an appetizer (480 kcal per 1); ham sandwiches (60 g bread, 10 g butter, 25 g ham 266 kcal per sandwich) and more orange juice and chocolate pudding (172 kcal per 100 g): coffee with cream and sugar (coffee could be sweetened if desired; therefore both cream and sugar were optional @ 12 g cream=20 kcal, 4.5 sugar=18 kcal). No other food or liquid was allowed during the study. At the end of the study, the amount of food eaten and the amount of fluid ingested was measured by absolute weight from which total caloric intake (food and fluid intake) was calculated.
Each subject was free to eat and drink as much as they wished, but the order of food intake had to follow the above schedule. To reduce participant's awareness of the amount of food being provided, food was served in excess.
On the first day of each treatment, each subject ate breakfast, if this was their normal custom; however, no snacks were allowed after 8:00 a.m. […] Infusions were delivered by ambulatory infusion pumps through a teflon catheter inserted into a forearm vein. Participants were able to sit, eat, stand and walk comfortably while receiving infusions. At 60 minutes after the start of the respective infusion, the test meal was presented and each participant was invited to eat and drink as much as they liked.
Beginning at 12:00 noon, the subjects scored their subjective feelings of hunger and fullness at 15 minute intervals throughout the treatments using a visual analogue scale of 0–10 and indicated the scores on a questionnaire. The scales and scores were designed as previously described (Welch I. M. et al. Gut 29:306–311 (1988); Welch I. M. et al. Gastroenterology 89:1293–1297 (1985); Drewe, J. et al. Gastroenterology 102:1654–1659 (1982)). For example, a score of 0 for hunger indicated the subject was not hungry at all, 2 indicated slightly hungry, 5 indicated moderately hungry, 8 indicated very hungry, and 10 indicated absolutely ravenous.
The quantity of food eaten and volume of fluid drunk was measured. The time for each subject to complete their meal was also measured. From these observations, the average rate of food and fluid intake, as well as the calorie intake, could be calculated. In the pre-meal period and after eating, blood was drawn at regular intervals into ethylenediaminetetraacetic acid (EDTA) tubes containing aprotinine (1000 KIU/ml blood) for glucose and hormone determinations.
The peptide was dissolved in 0.9% saline containing 0.5% human serum albumin, and prepared under aseptic conditions. Aliquots of 50 μg/5 ml were stored at −20° C. […] Treatments were delivered in a double-blind fashion.
The amount of food eaten and the amount of fluid drunk, the corresponding energy intake, and the duration of meal consumption were compared between the four by one-way analysis of variance (ANOVA) using the general linear model (GLM) procedure of the SAS software package (SAS Release 6.03. Cary, N C: SAS Institute, 1988). In the event of significant differences, ANOVA was followed by the Newman-Keuls multi-comparison test for pairwise comparisons (Sachs, L. Angewandte Statistik. Berlin, Springer, (1984)). […] Scores for hunger and fullness were compared at the different time points before and after meals between the different treatments using multiple paired t-tests with Bonferroni correction (Sachs, L. Angewandte Statistik. Berlin, Springer, (1984)).

[2] = Plasma glucose and hormone concentrations during graded GLP-1 infusion (Example 1); type: in vivo, human; details: healthy male subjects
Experimental: Glucose concentrations were measured by the hexokinase method. Plasma hormone concentrations of insulin, cholecystokinin, GLP-1 and leptin were measured as depicted in FIG. 1. All hormone concentrations were determined by specific radioimmunoassay systems. For insulin and leptin concentrations commercially available test kits were used. […] GLP-1 was measured as previously described (Schirra, J. et al. Proc. Assoc. Am. Phys. 109(1):84–971 (1997)). The detection limit of the GLP-1 assay was 2 fmol/tube. […] Intra-assay and inter-assay coefficients of variation were 3.4% and 10.4%, respectively.

obese humans = details: infusion of GLP-1 over 210 minutes; cited from earlier work
rats = details: cited from earlier work
[3] = Plasma glucose and hormone concentrations during GLP-1 infusion (Example 2); type: in vivo, human; details: diabetes mellitus type 2
Experimental: Blood was drawn through the indwelling anticubital cannula into syringes on ice. These contained EDTA (6 μmol/l) and aprotinine (1000 KIU/l). After centrifugation, plasma hormone analyses were kept frozen at −20° C. Plasma glucose was analyzed by the glucose oxidase method. Insulin and glucagon concentrations in plasma were analyzed by commercially available radioimmunoassay kits (Biermann, Bad Nauheim, Germany). Immunoreactive GLP-1 was measured using the specific polyclonal antibody GA 1178 (Affinity Research, Nottingham, UK). Immunoreactivities were extracted from plasma samples on C-18 cartridges using acetonitrile for elution of samples. The detection limit of the assay was 0.25 pmol/l. Intra-and interassay coefficients of variation were 3.8% and 10.9%, respectively.
Differences were considered significant if p was <0.05.

[4] = GLP-1 1.5 pmol/kg per min i.v. vs saline, diabetes mellitus type 2
[5] = GLP-1 1.5 pmol/kg per min i.v., 12 patients with diabetes mellitus type 2, mean ± SEM
[6] = pre-meal period, baseline vs 60 min of infusion, diabetes mellitus type 2
[7] = GLP-1 0.375 pmol/kg/min i.v. infusion
[8] = GLP-1 0.75 pmol/kg/min i.v. infusion
[9] = GLP-1 1.5 pmol/kg/min i.v. infusion
[10] = pre-meal period, significant only for highest dose of GLP-1, healthy male subjects

For `CC[C@H](C)[C@H](NC(=O)[C@H](Cc1ccccc1)NC(=O)[C@H](CCC(=O)O)NC(=O)[C@H](CCCCN)NC(=O)[C@H](C)NC(=O)[C@H](C)NC(=O)[C@H](CCC(N)=O)NC(=O)CNC(=O)[C@H](CCC(=O)O)NC(=O)[C@H](CC(C)C)NC(=O)[C@H](Cc1ccc(O)cc1)NC(=O)[C@H](CO)NC(=O)[C@H](CO)NC(=O)[C@@H](NC(=O)[C@H](CC(=O)O)NC(=O)[C@H](CO)NC(=O)[C@@H](NC(=O)[C@H](Cc1ccccc1)NC(=O)[C@@H](NC(=O)CNC(=O)[C@H](CCC(=O)O)NC(=O)[C@H](C)NC(=O)[C@@H](N)Cc1c[nH]cn1)[C@@H](C)O)[C@@H](C)O)C(C)C)C(=O)N[C@@H](C)C(=O)N[C@@H](Cc1c[nH]c2ccccc12)C(=O)N[C@@H](CC(C)C)C(=O)N[C@H](C(=O)N[C@@H](CCCCN)C(=O)NCC(=O)N[C@@H](CCCNC(=N)N)C(N)=O)C(C)C` [GLP-1, Glucagon-like peptide-1 (7–36) amide], the “decrease in calorie intake” value [1, 4] was 27%, the “maximal reduction in food consumption” value [1, 4] was 29% and the Calorie intake [1, 5] was 694 ± 79 kcal. For the same compound, the Fluid intake [1, 5] was 360 ± 60 mL, the “Food quantity” value [1, 5] was 268 ± 31 g and the “side effects / adverse reaction” value ([1]; GLP-1 1.5 pmol/kg per min i.v., diabetes mellitus type 2) was “None of the participants reported any abdominal discomfort or side effects”. For the same compound, the “fullness (VAS 0–10)” value [1, 6] was “increased feeling of fullness”, the “hunger (VAS 0–10)” value [1, 6] was “reduced degree of hunger” and the Calorie intake (healthy male subjects; [7]) was 1520 ± 95 keal. It also gave a Fluid intake (healthy male subjects; [7]) of 748 ± 52 mL, a Food quantity (healthy male subjects; [7]) of 531 ± 35 and a Meal duration (healthy male subjects; [7]) of 35 ± 3 min. The Calorie intake (healthy male subjects; [8]) was 1451 ± 101 keal, the Fluid intake (healthy male subjects; [8]) was 689 ± 48 mL and the Food quantity (healthy male subjects; [8]) was 516 ± 40. The Meal duration (healthy male subjects; [8]) was 34 ± 3 min, the Calorie intake (healthy male subjects; [9]) was 1107 ± 84 keal and the Fluid intake (healthy male subjects; [9]) was 584 ± 45 mL. The Food quantity (healthy male subjects; [9]) was 384 ± 34, the Meal duration (healthy male subjects; [9]) was 30 ± 3 min and the “reduction of fluid ingestion” value (healthy male subjects; GLP-1 i.v. infusion vs control, healthy male subjects) was 18%. For the same compound, the “side effects / adverse reactions” value (healthy male subjects; any infusion (0.375-1.5 pmol/kg per min i.v.), healthy male subjects) was “None of the participants reported any abdominal discomfort or side effects; also recorded: no overt side effects”, the “subjective feeling of fullness (visual analogue scale 0–10)” value (healthy male subjects; [10]) was “concomitant feeling of fullness; also recorded: early fullness” and the “subjective feeling of hunger (visual analogue scale 0–10)” value (healthy male subjects; [10]) was “reduced degree of hunger; also recorded: less hunger”. The leptin levels ([2]; any dose of GLP-1 administered) was “did not change”, the “blood glucose and plasma insulin concentrations” value ([2]; graded i.v. doses of GLP-1 in 5% glucose) was “dose-dependent, short-lasting increase” and the “plasma GLP-1 concentration” value ([2]; highest dose of GLP-1 (1.5 pmol/kg per min) i.v. infusion) was “supraphysiological plasma concentrations”. The “plasma CCK concentrations” value ([2]; pre-meal period, any dose of GLP-1) was “did not change”, the effect on appetite (obese humans) was “no effect on appetite” and the “food intake / feeding” value (rats; intracerebroventricular administration, fasted rats) was “reduce food intake; also recorded: inhibited feeding”. The food intake (rats; intraperitoneal application, rats) was “did not have any effect”, the glucagon response ([3]; GLP-1 1.5 pmol/kg per min i.v. vs saline) was “significantly reduced” and the “plasma concentrations of GLP-1” value ([3]; GLP-1 1.5 pmol/kg per min i.v.) was “increased the plasma concentrations of GLP-1”. For the same compound, the “blood glucose AUC” value ([3]; GLP-1 1.5 pmol/kg per min i.v., saline 1197±101) was 765 ± 65 mmol·min/L and the “insulin AUC” value ([3]; GLP-1 1.5 pmol/kg per min i.v., saline 1775±357) was 2920±516 μU×min/L.
For exendin (9–39) [reference compound], the “effect on GLP-1-induced inhibition of feeding” value (rats; GLP-1 injected into the cerebral ventricles of fasted rats) is given as “blocked” and the food intake (rats; exendin (9–39) alone, satiated rats) is given as “doubled food intake”.
